Assay results from patent US6803368B2, “Antipsychotic aminomethyl derivatives of 7,8-dihydro-3H-6,9-dioxa-1,3-diaza-cyclopenta[a]naphthalene” (Wyeth, priority 2001, dated 2004).

biological target: T1, dopamine D2 receptor (Rattus norvegicus, UniProt P61169); experiment: Dopamine D2 receptor affinity, 3H-quinpirole binding in homogenized rat striatal brain tissue
T1 construct: from tissue; host or cells: rat striatal brain tissue homogenate
Experimental: Affinity for the dopamine D2 receptor was established by a modification of the standard experimental test procedure of Seemen and Schaus, European Journal of Pharmacology 203: 105-109, 1991, wherein homogenized rat striatal brain tissue is incubated with ^3H-quinpirole and various concentrations of test compound, filtered and washed and counted in a Betaplate scintillation counter.

T1 sequence (P61169 whole entry): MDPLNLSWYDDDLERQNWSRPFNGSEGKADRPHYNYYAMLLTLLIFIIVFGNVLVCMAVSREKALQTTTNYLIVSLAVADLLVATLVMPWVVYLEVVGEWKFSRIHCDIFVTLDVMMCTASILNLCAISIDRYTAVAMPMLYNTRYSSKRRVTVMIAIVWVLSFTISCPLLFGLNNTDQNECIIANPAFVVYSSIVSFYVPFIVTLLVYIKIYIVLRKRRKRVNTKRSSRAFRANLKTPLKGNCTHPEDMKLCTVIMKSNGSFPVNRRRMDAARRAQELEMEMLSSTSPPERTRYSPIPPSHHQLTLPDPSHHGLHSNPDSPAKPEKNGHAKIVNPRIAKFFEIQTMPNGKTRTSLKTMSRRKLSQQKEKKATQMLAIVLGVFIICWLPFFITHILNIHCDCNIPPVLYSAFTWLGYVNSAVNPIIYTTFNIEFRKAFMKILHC

Row | IC50 [nM] | Molecule
1 | 0.4 | FC(F)(F)c1nc2c3c(ccc2[nH]1)OC[C@H](CNCCCCc1ccccc1)O3 [Example 2, (4-Phenyl-butyl)-(2-trifluoromethyl-7,8-dihydro-3H-6,9-dioxa-1,3-diaza-cyclopenta[a]naphthalen-8-ylmethyl)-amine]
2 | 2.2 | FC(F)(F)c1nc2c3c(ccc2[nH]1)OCC(CNCc1ccccc1)O3 (stereo not drawn) [Example 3, Benzyl-(2-trifluoromethyl-7,8-dihydro-3H-6,9-dioxa-1,3-diaza-cyclopenta[a]naphthalen-8-ylmethyl)-amine]

Row | Molecule | IC50 [nM]
3 | (2-Trifluoromethyl-7,8-dihydro-3H-6,9-dioxa-1,3-diaza-cyclopenta[a]naphthalen-8-yl)-methylamine [Example 1] | 260
